Target: T1, recombinant human iNOS (hiNOS) (Homo sapiens, UniProt P35228)
T1 construct: gene NOS2; human iNOS cDNA in pEFIRES-P, overexpressed in HT1080 fibrosarcoma cells; post-mitochondrial supernatant, arginine removed with Dowex-50W; homodimer
Assay: L-[U-14C]-arginine to L-[U-14C]-citrulline conversion assay
Type: biochemical
Settings: 100 µM, test compound added simultaneously with L-[U-14C]-arginine
Excerpt: L-[U-14C]-arginine to L-[U-14C]-citrulline conversion assay on recombinant human iNOS (hiNOS)

T1 sequence (P35228 whole entry): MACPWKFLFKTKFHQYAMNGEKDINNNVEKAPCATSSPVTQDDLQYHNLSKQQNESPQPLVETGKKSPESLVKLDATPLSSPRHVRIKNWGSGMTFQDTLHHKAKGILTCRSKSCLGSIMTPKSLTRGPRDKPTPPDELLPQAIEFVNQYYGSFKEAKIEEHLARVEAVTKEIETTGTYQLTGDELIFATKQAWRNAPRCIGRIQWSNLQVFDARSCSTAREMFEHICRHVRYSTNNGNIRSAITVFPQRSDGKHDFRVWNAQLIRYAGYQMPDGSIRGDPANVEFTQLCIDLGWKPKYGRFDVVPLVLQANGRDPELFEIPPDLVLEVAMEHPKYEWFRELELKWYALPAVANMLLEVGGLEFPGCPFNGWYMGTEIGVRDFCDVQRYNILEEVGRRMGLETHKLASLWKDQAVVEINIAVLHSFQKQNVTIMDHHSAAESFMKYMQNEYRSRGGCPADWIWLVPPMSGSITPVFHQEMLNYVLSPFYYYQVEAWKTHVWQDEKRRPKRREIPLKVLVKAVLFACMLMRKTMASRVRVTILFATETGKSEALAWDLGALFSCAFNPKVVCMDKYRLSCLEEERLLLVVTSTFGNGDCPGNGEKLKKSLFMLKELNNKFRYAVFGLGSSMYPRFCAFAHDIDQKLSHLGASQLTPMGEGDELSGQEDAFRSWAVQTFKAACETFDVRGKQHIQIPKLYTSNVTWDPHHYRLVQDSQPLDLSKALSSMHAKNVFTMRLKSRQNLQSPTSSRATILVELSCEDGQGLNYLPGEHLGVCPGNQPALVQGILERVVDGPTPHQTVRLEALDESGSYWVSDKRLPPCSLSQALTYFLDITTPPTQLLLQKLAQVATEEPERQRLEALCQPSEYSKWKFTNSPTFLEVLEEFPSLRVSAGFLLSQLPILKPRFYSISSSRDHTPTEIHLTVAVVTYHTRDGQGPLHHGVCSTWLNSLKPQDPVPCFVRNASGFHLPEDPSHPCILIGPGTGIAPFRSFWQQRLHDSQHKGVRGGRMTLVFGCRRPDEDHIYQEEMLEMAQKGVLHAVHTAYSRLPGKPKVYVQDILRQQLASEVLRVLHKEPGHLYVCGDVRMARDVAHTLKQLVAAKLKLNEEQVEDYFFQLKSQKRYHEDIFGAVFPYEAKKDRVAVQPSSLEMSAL

| SMILES | % Stimulation of hiNOS activity ^a / t = 0 min ^b |
| --- | --- |
| COC(=O)c1ccc(CNC(N)=S)s1 [compound 13, Methyl 5-(thioureidomethyl)thiophene-2-carboxylate] | +62 ± 2% |
| COC(=O)c1cc(CNC(N)=S)cs1 [compound 25, Methyl 4-(thioureidomethyl)thiophene-2-carboxylate] | +37 ± 27% |

Reference: publication PMC6257465, “Synthesis of N-(Methoxycarbonylthienylmethyl)thioureas and Evaluation of Their Interaction with Inducible and Neuronal Nitric Oxide Synthase” (Molecules, 2010)
